The source of these data is publication PMC11862990, “Utility of 6-aza-2-thiothymine in the synthesis of novel [1,2,4]triazolo[4,3-b][1,2,4]triazin-7-one derivatives: synthesis, structure elucidation, molecular docking and in vitro anti-lung cancer activity” (RSC Advances, 2025).

Data set [1] deals with BJ1 (normal skin fibroblast). As to conditions: 100 μg ml^−1, 48 hours, MTT. On the procedure: Using specific human cancer cell lines, the anti-proliferative effectiveness of compounds 7a–j was evaluated in an in vitro assay. The anti-cancer activity of these compounds (7a–j) on various cancer cell lines, including PC3 (Prostate cell line), A549 (Lung carcinoma), PACA2 (Pancreatic cancer cell line) and BJ1 (normal skin fibroblast), was investigated in this study using the 3-(4,5-dimethylthiazol-2-yl)-2,5-diphenyltetrazolium bromide (MTT) test.
In the initial screening trial, a single dosage concentration of 100 μg ml^−1 was applied for 48 hours. The cytotoxicity of the treated cells was determined by calculating the cell death percentage (% mortality) as a percentage of untreated cells (Table 2).
Cell viability was tested using the MTT assay, 3-(4,5-dimethylthiazol-2-yl)-2,5-diphenyl-tetrazolium bromide (Bio Basic Canada Inc. Toronto, Canada).[26] Under class II biosafety regulations, the procedures were carried out in a sterile laminar air flow cabinet (Baker, SG403INT; Sanford, ME, USA). Cell lines were obtained from the American type culture collection (ATCC) as a gift from Dr Stig Linder, Karonisca Institute, Sweden. All incubations were performed at 37 °C in a 5% CO2 incubator with a 95% humidified environment (Sheldon, TC2323; Cornelius, OR, USA). 96-well micro titer polypropylene plates were seeded with cells at a density of 10^4 cells per well in complete DMEM media, and the cells were allowed to adhere for 24 hours. After the media was aspirated, the tested compounds were added to the cells in a single dose of 100 μg ml^−1 in DMSO. Each well received 40 μl of MTT salt ([…]) following a 48 hour incubation period. 200 μl of 10% sodium dodecyl sulfate (SDS) was added to each well after the reaction ended, and any formazan crystals that could have been produced were dissolved by two hours of incubator heating to 37 °C. The amount of formazan product was measured at 595 nm using a microplate reader (Bio-Rad Laboratories, model 3350, California, USA) with a reference wavelength of 690 nm, serving as a backdrop. Rather than the drugs under investigation, the medium was applied to the untreated cells (negative control). The examined compounds were dissolved in dimethylsulfoxide (DMSO), and the final concentration in the cells was less than 0.2%. For each compound and the control, the solvent concentration was the same.

In a further data set the test system is PC3 (prostate cell line). As to the kind of experiment: MTT cytotoxicity assay, PC3. As to conditions: Homo sapiens, 100 μg ml^−1, 48 hours, MTT, read-out: (%) Mortality PC3. The class given is cell-based. In general terms: Formazan colour is commonly taken as a measure of viable cells.
In data set [2] the test system is PACA2 (pancreatic cancer cell line). As to the kind of experiment: MTT cytotoxicity assay, PACA2. The class given is cell-based. As to conditions: Homo sapiens, PaCa-2; 100 μg ml^−1, 48 hours, MTT; read-out: (%) Mortality PACA2.
Procedure: (§1) Using specific human cancer cell lines, the anti-proliferative effectiveness of compounds 7a–j was evaluated in an in vitro assay. The anti-cancer activity of these compounds (7a–j) on various cancer cell lines, including PC3 (Prostate cell line), A549 (Lung carcinoma), PACA2 (Pancreatic cancer cell line) and BJ1 (normal skin fibroblast), was investigated in this study using the 3-(4,5-dimethylthiazol-2-yl)-2,5-diphenyltetrazolium bromide (MTT) test. Doxorubicin (Dox) was the standard medication used as a positive control.
(§2) All incubations were performed at 37 °C in a 5% CO2 incubator with a 95% humidified environment (Sheldon, TC2323; Cornelius, OR, USA). 96-well micro titer polypropylene plates were seeded with cells at a density of 10^4 cells per well in complete DMEM media, and the cells were allowed to adhere for 24 hours. After the media was aspirated, the tested compounds were added to the cells in a single dose of 100 μg ml^−1 in DMSO. Each well received 40 μl of MTT salt (2.5 g ml^−1) following a 48 hour incubation period. 200 μl of 10% sodium dodecyl sulfate (SDS) was added to each well after the reaction ended, and any formazan crystals that could have been produced were dissolved by two hours of incubator heating to 37 °C. The amount of formazan product was measured at 595 nm using a microplate reader (Bio-Rad Laboratories, model 3350, California, USA) with a reference wavelength of 690 nm, serving as a backdrop. Rather than the drugs under investigation, the medium was applied to the untreated cells (negative control). The examined compounds were dissolved in dimethylsulfoxide (DMSO), and the final concentration in the cells was less than 0.2%. For each compound and the control, the solvent concentration was the same.
Another data set has as its system A549 (lung carcinoma). Description: MTT cytotoxicity assay, A549. As to conditions: Homo sapiens, A549, MTT; for cytotoxicity at 100 µg/mL: 100 μg ml^−1, 48 hours, read-out: (%) Mortality A549. The class given is cell-based.

“And” between values parts separate entries of the source, which are not always exact repeats. Equal values may be shown once.

Procedure for A549 (lung carcinoma): as §1, §2
Procedure for PC3 (prostate cell line): as §1, §2

In the case of `Cc1nn2c(C(C)C)nn(-c3ccc([N+](=O)[O-])cc3)c2nc1=O` [Compound 7d, 3-Isopropyl-6-methyl-1-(4-nitrophenyl)-[1,2,4]triazolo[4,3-b][1,2,4]triazin-7(1H)-one], the “(%) Mortality BJ1 (cytotoxicity percentage on normal cells)” value in data set [1] is 36.2 ± 1.11%. Moreover, the cytotoxicity at 100 µg/mL is 17.9 ± 0.38% with PC3 (prostate cell line), 11.5 ± 0.25% in data set [2] and 33.3 ± 0.22% in the data set with A549 (lung carcinoma).
In the case of `CCCc1nn(-c2ccc([N+](=O)[O-])cc2)c2nc(=O)c(C)nn12` [Compound 7c, 6-Methyl-1-(4-nitrophenyl)-3-propyl-[1,2,4]triazolo[4,3-b][1,2,4]triazin-7(1H)-one], the “(%) Mortality BJ1 (cytotoxicity percentage on normal cells)” value in data set [1] was found to be 1.6 ± 0.38%. For the same compound, the results for the cytotoxicity at 100 µg/mL (in the data set with PC3 (prostate cell line); in data set [2]; in the data set on A549 (lung carcinoma)) were 27.3 ± 1.2%, 10.5 ± 0.61% and 22.9 ± 0.81%, respectively.
The matching figures for `CCc1nn(-c2ccc([N+](=O)[O-])cc2)c2nc(=O)c(C)nn12` [Compound 7b, 3-Ethyl-6-methyl-1-(4-nitrophenyl)-[1,2,4]triazolo[4,3-b][1,2,4]triazin-7(1H)-one]: 4.2 ± 0.98%, 24.5 ± 0.57%, 3.6 ± 0.21% and 35.2 ± 1.22%.
With `Cc1nn2c(-c3cccs3)nn(-c3ccc([N+](=O)[O-])cc3)c2nc1=O` [Compound 7j, 6-Methyl-1-(4-nitrophenyl)-3-(thiophen-2-yl)-[1,2,4]triazolo[4,3-b][1,2,4]triazin-7(1H)-one], in data set [1], the “(%) Mortality BJ1 (cytotoxicity percentage on normal cells)” value is on record as 3.8 ± 0.77%. Moreover, the cytotoxicity at 100 µg/mL worked out at 15.9 ± 0.51% in the data set on PC3 (prostate cell line), 7.2 ± 0.88% in data set [2] and 32.8 ± 0.54% in the data set on A549 (lung carcinoma).
The matching figures for `Cc1nn2c(-c3ccc(Cl)cc3)nn(-c3ccccc3)c2nc1=O` [Compound 7h, 3-(4-Chlorophenyl)-6-methyl-1-phenyl-[1,2,4]triazolo[4,3-b][1,2,4]triazin-7(1H)-one]: 9.6 ± 0.93%, 24.2 ± 0.21%, 21.3 ± 0.98% and 13.5 ± 0.33%.
The matching figures for `Cc1nn2c(-c3ccco3)nn(-c3ccc([N+](=O)[O-])cc3)c2nc1=O` [Compound 7i, 3-(Furan-2-yl)-6-methyl-1-(4-nitrophenyl)-[1,2,4]triazolo[4,3-b][1,2,4]triazin-7(1H)-one]: 2.9 ± 1.22%, 18.4 ± 1.14%, 9.6 ± 1.33% and 14.2 ± 0.24%.
On to `Cc1ccc(-c2nn(-c3ccccc3)c3nc(=O)c(C)nn23)cc1` [Compound 7f, 6-Methyl-1-phenyl-3-(p-tolyl)-[1,2,4]triazolo[4,3-b][1,2,4]triazin-7(1H)-one], for which, in data set [1], the “(%) Mortality BJ1 (cytotoxicity percentage on normal cells)” value was 3.2% and 3.2 ± 0.63%. The cytotoxicity at 100 µg/mL in the data set with PC3 (prostate cell line) came out at 33.4 ± 1.18%; in data set [2], 5.6 ± 0.11%; in the data set on A549 (lung carcinoma), 69.1 ± 0.77%.
The term IC50 denotes the concentration that inhibits the measured activity by half. A lower IC50 goes with greater potency in that assay. Regarding `Cc1nn2c(CC(C)C)nn(-c3ccc([N+](=O)[O-])cc3)c2nc1=O` [Compound 7e, 3-Isobutyl-6-methyl-1-(4-nitrophenyl)-[1,2,4]triazolo[4,3-b][1,2,4]triazin-7(1H)-one], the “(%) Mortality BJ1 (cytotoxicity percentage on normal cells)” value in data set [1] is 6.4% and 6.4 ± 0.85%. The cytotoxicity at 100 µg/mL in the data set with PC3 (prostate cell line) came to 35.1 ± 1.11%; in data set [2], 8.6 ± 0.33%; in the data set on A549 (lung carcinoma) it was 86.3 ± 0.74%. Inhibition in the data set on A549 (lung carcinoma) (48 hour incubation) was half-maximal at 42.5 µM (IC50).
